Values quoted from earlier work in paper PMC11902296, “cAmbly: A non-toxic cell-penetrating peptide derived from Amblyomin-X with targeted delivery to mitochondrial and cytoplasmic proteins” (PLOS One, 2025).
No end group written: not given here.

Legend:
tumor cells [1] = conditions: isolated domain of Amblyomin-X
Source text: One promising candidate has emerged from Amblyomin-X, a Kunitz-type protease inhibitor derived from the salivary glands of the tick Amblyomma sculptum. […] Structurally, Amblyomin-X consists of two distinct regions: a non-permeant Kunitz-type domain located at the N-terminus, which mediates the protein’s cytotoxic activity, and a disordered C-terminal tail.

tumor cells [2] = conditions: isolated domain of Amblyomin-X; remark: listed apart in the source
Source text: Amblyomin-X is a promising antitumoral protein that requires cellular internalization to exert its activity.

EEQTHFHFESPKLISFKVQDYWILNDIMKKNLTGISLKSEEEDADSGEID [cAmbly]
cytotoxic activity (tumor cells [1]): lacks cytotoxic activity | ability to enter cells (tumor cells [2]): can penetrate cells
